Data reported in patent US8183001B2 (priority 2006, dated 2012).
Like-named read-outs stand apart in the source and are kept apart here.

Assays:
[1] = target: T1, UNC-49B homomer (GABA receptor) (Caenorhabditis elegans, UniProt G5ECD3); test: Pentobarbital enhancement of UNC-49B homomer (FIG. 14B, allosteric regulation of UNC-49); assay type: cell-based
T1 construct: homopentamer; two-electrode voltage clamp
Procedure: (§1) Like their mammalian homologs, UNC-49 subunits contain a large extracellular amino terminal region, and four transmembrane domains labeled M1-M4.
(§2) Electrophysiology: Plasmids containing wild-type and mutagenized GABAA receptor subunits were linearized and transcribed in vitro using T3 RNA polymerase (mMessage mMachine T3 kit, Ambion, Austin Tex.). UNC-49B mRNA was injected into Xenopus laevis oocytes at 0.5 μg/μl either alone, or in a mixture with 0.5 μg/μl UNC-49C. […] The injection volume ranged between 27.6 nl to 50.6 nl. […] Cells were voltage clamped at −60 mV. All recordings were performed at room temperature.

UNC-49B homomer [2] = target: T2, UNC-49B homomer (Caenorhabditis elegans, UniProt G5ECD3); assay type: cell-based, C. elegans
T2 sequence (G5ECD3 entry or part of it): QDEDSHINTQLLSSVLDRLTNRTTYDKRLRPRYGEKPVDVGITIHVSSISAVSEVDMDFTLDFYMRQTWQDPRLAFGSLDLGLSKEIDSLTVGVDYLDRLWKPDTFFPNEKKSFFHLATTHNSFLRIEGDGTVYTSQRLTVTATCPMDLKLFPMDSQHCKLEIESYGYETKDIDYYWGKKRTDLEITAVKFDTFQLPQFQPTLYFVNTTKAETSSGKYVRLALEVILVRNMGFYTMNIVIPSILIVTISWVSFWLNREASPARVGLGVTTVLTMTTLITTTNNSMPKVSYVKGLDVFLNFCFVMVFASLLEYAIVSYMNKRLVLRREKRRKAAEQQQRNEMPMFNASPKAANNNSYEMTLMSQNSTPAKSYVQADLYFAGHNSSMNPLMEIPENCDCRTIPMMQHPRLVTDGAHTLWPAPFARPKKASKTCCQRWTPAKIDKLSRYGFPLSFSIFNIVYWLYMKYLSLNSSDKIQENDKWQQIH
Procedure: as §2

Y chimera = Y chimera (Caenorhabditis elegans, UniProt G5ECD3, I265S/I267V/I270L/N259Q/N305R/T269V/V261F/V273I); assay type: cell-based, C. elegans; conditions: Y chimera compared with wild-type UNC-49B and QF-R subunit; at EC50 GABA
Sequence of Y chimera (G5ECD3 23-506, stated change not applied): as the sequence (G5ECD3 entry or part of it) above
Procedure: as §2

UNC-49B-PS7 = assay type: cell-based, C. elegans; conditions: UNC-49B-PS7 versus UNC-49B/C heteromer; at EC50 GABA
Procedure: as §2

UNC-49B/C heteromer [3] = target: T3, UNC-49B/C heteromer (Caenorhabditis elegans, UniProt G5ECD3+G5EE10); assay type: cell-based; conditions: UNC-49B/C heteromers
T3 sequence (G5EE10 entry or part of it): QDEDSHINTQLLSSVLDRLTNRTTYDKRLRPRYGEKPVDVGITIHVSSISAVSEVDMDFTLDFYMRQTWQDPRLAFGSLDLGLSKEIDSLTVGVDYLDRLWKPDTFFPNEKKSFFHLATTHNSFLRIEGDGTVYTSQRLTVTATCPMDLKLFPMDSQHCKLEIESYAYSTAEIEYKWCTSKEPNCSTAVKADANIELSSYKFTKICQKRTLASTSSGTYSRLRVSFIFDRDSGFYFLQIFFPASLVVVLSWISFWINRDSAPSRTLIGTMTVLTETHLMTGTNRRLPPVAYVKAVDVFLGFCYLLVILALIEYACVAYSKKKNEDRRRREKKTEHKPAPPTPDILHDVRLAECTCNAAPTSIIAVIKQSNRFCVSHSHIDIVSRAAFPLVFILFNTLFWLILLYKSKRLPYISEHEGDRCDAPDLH
T3 sequence (G5ECD3 entry or part of it): as the sequence (G5ECD3 entry or part of it) above
Procedure: as §2

QF-R = QF-R (Caenorhabditis elegans, UniProt G5ECD3, N259Q/N305R/V261F); assay type: cell-based, C. elegans; conditions: QF-R subunit compared with wild-type UNC-49B and Y chimera; at EC50 GABA
Sequence of QF-R (G5ECD3 23-506, stated change not applied): as the sequence (G5ECD3 entry or part of it) above
Procedure: as §2
The conserved residues were tested in the UNC-49C M1 domain in a similar way. […] To test the importance of these conserved residues, they were substituted into an UNC-49B subunit with the linker mutation N305R to create the ‘QF-R’ subunit (FIG. 3c).

[4] = system: mammalian GABAA receptor with α1 subunit XY segment replaced with UNC-49B XY sequence; test: Neurosteroid positive modulation, subunits expressed in Xenopus oocytes; assay type: cell-based; conditions: altered receptor compared to the wild-type receptor
Procedure: It has been shown that one variant of the XY segment conferred high PS sensitivity (the UNC-49C sequence) (Example 1), while another variant of the XY segment conferred low PS sensitivity (the UNC-49B sequence). Subunits of mammalian GABAA receptors also contain an XY segment. It was tested whether neurosteroid sensitivity of mammalian receptors similarly depended on their XY segments. The mammalian XY segment (within the α1 subunit) was replaced with the low-sensitivity UNC-49B XY sequence variant. […] Both positive and negative modulation of GABAA receptors are therapeutically beneficial.

[5] = target: T1, UNC-49B homomer (GABA receptor); test: Picrotoxin inhibition of GABA-evoked currents, UNC-49B homomer (FIG. 14A; two-electrode voltage clamp, Xenopus oocytes); assay type: cell-based; conditions: co-application of GABA and picrotoxin
Procedure: as §1, §2

[6] = target: T4, UNC-49B/C heteromer (GABA receptor) (Caenorhabditis elegans, UniProt G5ECD3+G5EE10); test: Picrotoxin inhibition of GABA-evoked currents, UNC-49B/C heteromer (FIG. 14A; two-electrode voltage clamp, Xenopus oocytes); assay type: cell-based; conditions: co-application of GABA and picrotoxin
T4 construct: two-electrode voltage clamp
T4 sequence (G5ECD3 23-506): as the sequence (G5ECD3 entry or part of it) above
T4 sequence (G5EE10 entry or part of it): as the sequence (G5ECD3 entry or part of it) above
Procedure: as §1, §2

UNC-49B/C heteromer [7] = target: T3, UNC-49B/C heteromer; conditions: UNC-49B/C heteromers; Bamber et al., 2003; cited from earlier work
B-β3 chimera = test: Pregnanolone response of B-β3 chimera; assay type: cell-based
From the text: A) Structure of the B-β3 chimera. B) The B-β3 chimera is enhanced by pregnanolone.

UNC-49B homomer [8] = target: T2, UNC-49B homomer; conditions: UNC-49B homomers; Bamber et al., 2003; cited from earlier work

T1 sequence (G5ECD3 23-506): as the sequence (G5ECD3 entry or part of it) above

## CCCC(C)C1(CC)C(=O)NC(=O)NC1=O (centres unmarked) [PB, pentobarbital]
[1]
  EC50: 369 ± 23.1 µM

## picrotoxin [listing 1 of 2 here]
UNC-49B homomer [2]; UNC-49B homomers
  picrotoxin inhibition: strongly inhibits
UNC-49B homomer [2]; wild-type UNC-49B compared with QF-R subunit and Y chimera (UNC-49B curve from Bamber et al. 2003)
  picrotoxin sensitivity: identical
Y chimera
  picrotoxin sensitivity: identical
UNC-49B-PS7
  fold difference in picrotoxin sensitivity: 50 fold
UNC-49B/C heteromer [3]
  picrotoxin inhibition: only weakly inhibits
QF-R
  picrotoxin sensitivity: identical

## C[C@]12CC[C@@H](O)C[C@@H]1CC[C@@H]1[C@@H]2CC[C@]2(C)[C@@H](C(=O)CO)CC[C@@H]12 [5α-3α-THDOC]
[4]
  positive modulation by neurosteroid: greatly-reduced positive modulation

## CCCC(C)C1(CC)C(=O)NC(=O)NC1=O (centres unmarked) [Pentobarbital]
UNC-49B homomer [2]
  pentobarbital enhancement: more strongly than UNC-49B/C heteromers

## picrotoxin [listing 2 of 2 here]
[5]
  IC50: 0.89 ± 0.15 µM
[6]
  IC50: 166 ± 42 µM

## CC(=O)[C@H]1CC[C@H]2[C@@H]3CC[C@@H]4C[C@H](O)CC[C@]4(C)[C@H]3CC[C@]12C [pregnanolone]
UNC-49B homomer [2]; UNC-49B homomer
  direct activation by pregnanolone: fails to directly activate
  pregnanolone modulation: inhibits, rather than enhances
UNC-49B/C heteromer [7]
  pregnanolone modulation: inhibited
B-β3 chimera
  direct activation by pregnanolone: directly activated
  pregnanolone modulation: enhanced
UNC-49B homomer [8]
  pregnanolone modulation: inhibited
